# Active and inactive are the calls of the source.
# Assays:
# Major prion protein = Major prion protein (Homo sapiens, UniProt P04156); format: functional, cell-based
# cells [1] = assay: cells
# [2] = viability loss in MITF-independent A375 cells – cell-based, CellTiter-Glo luminescence, dry powder, set 2, counter-screen for MITF inhibitor project, dose response (AID 624489); format: functional; settings: A-375;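 note: actives are compounds lowering A375 viability meaning general cytotoxicity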
# [3] = cytotoxicity in MITF-independent A375 cells – cell-based, CellTiter-Glo luminescence, dry powder, set 4, counter-screen for MITF inhibitor project, dose response (AID 624364); format: functional; settings: A-375;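 note: A375 melanoma cells are MITF independent so this is a counter screen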
# [4] = target: Potassium channel subfamily K member 9 (Homo sapiens, UniProt Q9NPC2); assay: KCNK9 flux blockade, concentration-response – cell-based, FluxOR thallium flux, selectivity assay for TASK1 inhibitor project, SAR follow-up (AID 652211); format: functional;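 note: potency is for inhibitors of the channel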
# [5] = target: Potassium channel subfamily K member 3 (Homo sapiens, UniProt O14649); assay: inhibition of human KCNK3 channel flux – CHO cells, FluxOR thallium flux, SAR follow-up (AID 652212); format: functional
# [6] = target: T1, NAD-dependent protein deacylase sirtuin-5, mitochondrial (Homo sapiens, UniProt Q9NXA8); assay: blockers of sirtuin-5 peptide desuccinylation – biochemical, fluorescence imaging, cherry-pick, set 6, dose response (AID 720597)
# [7] = target: Disintegrin and metalloproteinase domain-containing protein 17 (Homo sapiens, UniProt P78536); assay: inhibition of ADAM17 substrate cleavage – biochemical, quenched FRET substrate, counter-screen for ADAM10 exosite inhibitor project, dose response (AID 743253)
# [8] = potency of ADAM10 substrate cleavage blockers – biochemical, QFRET, dose response (AID 743254);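 note: ADAM10 enzyme with the DM2 quenched FRET peptide as substrate; EDANS fluorescence gain as the protease cuts the substrate; inhibitor potency against ADAM10 proteolytic activity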
# NS3 = NS3 (Hepatitis C virus, UniProt A3EZJ3); assay: NS3h DNA-binding inhibition IC50 – biochemical, fluorescence polarization, ChemBridge library, dose response (AID 743264)
# Large T antigen = Large T antigen (Simian virus 40, UniProt P03070); format: functional, Betapolyomavirus macacae;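 note: Confirmatory-stage PubChem screen for compounds that inhibit SV40 T antigen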
# [9] = luciferase reporter signal suppression in cells – H4 neuroglioma cells, luminescence, dose response (AID 1990); format: functional, cell-based
# [10] = general mammalian cell viability loss – activator set, cherry-pick, cytotoxicity control for miR-122 modulator project, dose response (AID 720690); format: functional, cell-based;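 note: HEK293T human cells scored for general mammalian cytotoxicity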
# [11] = DRD fibroblast viability loss – cell-based, non-viral oncogenic, luminescence, dose response (AID 1934); format: functional; settings: Homo sapiens
# [12] = target: Luciferin 4-monooxygenase (Photinus pyralis, UniProt P08659); assay: inhibition of purified Photinus pyralis luciferase – biochemical, luminescence, dose response (AID 1891)
# BJ [13] = assay: growth inhibition of engineered Ras-driven BJ cells – cell-based, alamar blue fluorescence, cherrypicked samples, dose response (AID 2631); format: functional; settings: Homo sapiens;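 note: confirmatory dose-response assay in RAS-dependent BJ fibroblasts engineered with TERT, LT and ST, with cytotoxicity read by fluorescence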
# BJ [14] = assay: BJ-TERT-LT-ST fibroblast viability loss – cell-based, RAS-independent, luminescence, dose response (AID 1935); format: functional; settings: Homo sapiens;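 note: BJ fibroblasts immortalized with TERT plus LT and ST oncogenes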
# [15] = alpha-synuclein stem-loop luciferase translation blockers – H4 neuroglioma cells, luminescence, confirmation (AID 1988); format: functional, cell-based
# BJ [16] = assay: BJ-TERT fibroblast viability loss – cell-based, RAS-independent, luminescence, dose response (AID 1933); format: functional; settings: Homo sapiens
# [17] = general mammalian cell viability loss – inhibitor set, cherry-pick, set 2, cytotoxicity control for miR-122 modulator project, dose response (AID 720697); format: functional, cell-based
# Nonstructural protein 1 = Nonstructural protein 1 (Influenza A virus, UniProt Q194T2); format: functional, Influenza A virus (A/California/07/2009(H1N1))
# [18] = Luminescence Cell-Based Dose Response HTS to Identify Inhibitors of 5'UTR Stem-Loop Driven Prion Protein mRNA Translation in H4 Neuroglioblastoma Cells. [Related pubchem assays: 1827 (Project Summary), 1813 (Primary HTS)]; format: functional
# [19] = Luminescence Cell-Based Dose Confirmation HTS to Identify Inhibitors of Platelet Dense Granule Release. [Related pubchem assays: 1663 (Primary HTS), 1678 (Summary of Project)]; format: functional
# BJ [20] = assay: cells; format: functional, cell-based; settings: Homo sapiens
# [21] = target: T2, Rac GTPase-activating protein 1 (Homo sapiens, UniProt Q9H0H5); assay: blockers of MgcRacGAP-driven Rac1 GTP hydrolysis – biochemical, ADP Hunter fluorescence, primary and confirmatory, confirmation (AID 624330); format: functional
# T2 sequence (Q9H0H5 whole entry): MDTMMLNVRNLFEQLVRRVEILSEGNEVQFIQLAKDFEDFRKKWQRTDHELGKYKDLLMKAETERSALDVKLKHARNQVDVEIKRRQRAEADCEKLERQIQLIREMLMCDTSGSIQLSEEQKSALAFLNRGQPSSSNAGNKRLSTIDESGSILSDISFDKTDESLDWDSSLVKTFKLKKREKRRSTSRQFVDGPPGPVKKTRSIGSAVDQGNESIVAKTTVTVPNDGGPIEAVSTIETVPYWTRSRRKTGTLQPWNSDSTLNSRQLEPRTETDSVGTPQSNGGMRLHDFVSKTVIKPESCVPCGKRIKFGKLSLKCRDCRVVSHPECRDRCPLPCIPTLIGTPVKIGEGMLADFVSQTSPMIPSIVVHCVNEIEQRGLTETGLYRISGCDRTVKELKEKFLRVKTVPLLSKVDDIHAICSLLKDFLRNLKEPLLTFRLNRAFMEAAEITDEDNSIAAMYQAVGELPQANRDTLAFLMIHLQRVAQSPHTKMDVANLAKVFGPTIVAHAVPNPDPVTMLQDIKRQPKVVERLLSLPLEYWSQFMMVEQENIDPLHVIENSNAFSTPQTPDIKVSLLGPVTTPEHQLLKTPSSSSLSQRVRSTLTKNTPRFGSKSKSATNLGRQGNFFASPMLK
# [22] = MITF Orthogonal Assay: SK-MEL-5 CTG Assay Measured in Cell-Based System Using Plate Reader - 2084-02_Inhibitor_Dose_DryPowder_Activity_Set7.; format: functional
# [23] = inhibitors of TRPM1-promoter reporter in SK-MEL-5 – cell-based, luciferase, dry powder, set 8, MITF inhibitor project, dose response (AID 624430); format: functional
# [24] = MITF: Counter assay: A375 proliferation Measured in Cell-Based System Using Plate Reader - 2084-03_Inhibitor_Dose_DryPowder_Activity_Set8.; format: functional; settings: A-375
# [25] = Luminescence Cell-Based Dose Confirmation HTS to Identify Activators of 5'UTR Stem-Loop Driven Alpha-Synuclein mRNA Translation in H4 Neuroglioblastoma Cells. [Related pubchem assays: 1829 (Project Summary), 1814 (Primary HTS)]; format: functional
# [26] = Luminescence Cell-Based Dose Response HTS to Identify Activators of Luciferase Translation or Activity in H4 […] Cells. [Related pubchem assays: 1829 (Project Summary), 1814 (Primary HTS)]; format: functional
# cells [27] = format: functional, cell-based
# H4 = assay: Luminescence Cell-Based Dose Response HTS to Identify Activators of 5'UTR Stem-Loop Driven Prion Protein mRNA Translation in H4 Neuroglioblastoma Cells. [Related pubchem assays: 1829 (Project Summary), 1814 (Primary HTS)]; format: functional; settings: Homo sapiens
# cells [28] = format: functional, cell-based; remark: listed apart in the source
# [29] = viability loss in HepG2 hepatoma cells – cell-based, ATP luminescence, cherry-pick, activator set 2, cytotoxicity control, dose response (AID 1053143); format: functional
# [30] = target: Oxysterols receptor LXR-beta (Homo sapiens, UniProt P55055); format: functional, cell-based;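 note: agonist activity at LXR measured by a cell-based luminescence readout across a dose range, run as a counterscreen for daf-12 agonists; HEK293 cells with Gal4-LXR fusion and GAL4-driven luciferase reporter; potency for activation of Gal4-LXR reporter so compounds are agonists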
# [31] = target: T1, NAD-dependent protein deacylase sirtuin-5, mitochondrial; assay: sirtuin-5 deacylation blockers, concentration series – biochemical, fluorescence imaging, cherry-pick, set 5, dose response (AID 720591);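 note: desuccinylation of succinyl peptide AMC substrate read as fluorescence after trypsin release; potency of inhibitors that lower fluorescence and may act on trypsin instead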
# [32] = target: FAD-linked sulfhydryl oxidase ALR (Homo sapiens, UniProt P55789); assay: ALR-catalysed DTT oxidation blockers – biochemical, H2O2 detection, luminescence, cherry-pick, dose response (AID 493248)
# cells [33] = assay: cells; remark: listed apart in the source
# cells [34] = settings: HEK293
# [35] = cytotoxicity toward MDA-MB-231 breast cancer cells – cell-based, CellTiter-Glo luminescence, cherry-pick, cytotoxicity control for RAD54 inhibitor project, dose response (AID 651692); format: functional
# [36] = target: T3, DNA repair and recombination protein RAD54-like (Homo sapiens, UniProt Q92698); assay: RAD54 Holliday junction migration blockers – biochemical, fluorescence, cherry-picked samples, dose series, confirmation (AID 651657); format: functional
# T3 sequence (Q92698 whole entry): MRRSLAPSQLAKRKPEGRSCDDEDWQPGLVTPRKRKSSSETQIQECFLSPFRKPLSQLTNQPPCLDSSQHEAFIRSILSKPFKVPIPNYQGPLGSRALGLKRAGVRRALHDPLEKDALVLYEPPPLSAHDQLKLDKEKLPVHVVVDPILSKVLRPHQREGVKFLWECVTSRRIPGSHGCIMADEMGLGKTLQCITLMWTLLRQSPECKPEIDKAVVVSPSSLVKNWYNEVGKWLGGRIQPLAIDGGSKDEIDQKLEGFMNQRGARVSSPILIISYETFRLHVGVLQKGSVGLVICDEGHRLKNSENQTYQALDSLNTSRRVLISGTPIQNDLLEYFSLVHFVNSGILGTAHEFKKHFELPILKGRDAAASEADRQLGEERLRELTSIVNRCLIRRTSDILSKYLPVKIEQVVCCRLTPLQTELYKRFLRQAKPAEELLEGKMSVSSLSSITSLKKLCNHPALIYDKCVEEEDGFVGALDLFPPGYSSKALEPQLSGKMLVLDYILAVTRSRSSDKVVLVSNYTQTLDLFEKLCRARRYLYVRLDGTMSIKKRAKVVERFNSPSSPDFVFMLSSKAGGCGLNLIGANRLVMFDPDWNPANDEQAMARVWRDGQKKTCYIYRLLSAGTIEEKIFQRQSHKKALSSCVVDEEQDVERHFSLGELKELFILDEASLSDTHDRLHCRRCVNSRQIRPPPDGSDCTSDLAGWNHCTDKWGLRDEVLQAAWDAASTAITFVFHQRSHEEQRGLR
# [37] = viability loss in HepG2 liver cells – cell-based, ATP luminescence, cherry-pick, set 6, cytotoxicity control, dose response (AID 1053125); format: functional
# cells [38] = settings: A549
# [39] = target: T4, Ubiquitin-conjugating enzyme E2 N (Homo sapiens, UniProt P61088); format: functional;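 note: Dose-response confirmation in a TR-FRET assay detecting UBC13-driven polyubiquitin chain formation, inhibition measured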
# T4 sequence (P61088 whole entry): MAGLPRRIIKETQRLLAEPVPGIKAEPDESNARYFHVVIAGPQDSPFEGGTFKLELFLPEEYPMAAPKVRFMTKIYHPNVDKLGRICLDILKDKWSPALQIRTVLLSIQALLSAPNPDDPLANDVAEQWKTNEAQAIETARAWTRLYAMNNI
# [40] = target: Protein disulfide-isomerase (Homo sapiens, UniProt P07237); assay: inhibition of PDI-mediated insulin reduction – biochemical, turbidity, dry powder samples, set 2, confirmation (AID 652146)
# [41] = inhibitors of non-replicating M. tuberculosis, dose response, luciferase, dry powder (AID 651619); format: functional; settings: Mycobacterium tuberculosis
# [42] = inhibitors of non-replicating M. tuberculosis, dose response, luciferase, dry powder (AID 651620); format: functional; settings: Mycobacterium tuberculosis
compound,measurement,setting,value
Cc1nc(SCC(=O)Nc2cc(C(N)=O)cc(C(N)=O)c2)c2c(C)c(C)sc2n1,IC50,Major prion protein,11.6 µM (inactive)
same,IC50,cells [1],> 138 µM (inactive)
CC(=O)N(C)C1=C(N2CCN(C)CC2)C(=O)c2ccccc2C1=O,AC50,[2],5.65 µM (active)
same,AC50,[3],12.1 µM (active)
CCOc1ccccc1NC(=O)c1cccc(NC(=O)CC2CCCCC2)c1,IC50,[4],1.92 µM (active)
same,IC50,[5],0.217 µM (active)
COCC(=O)NC[C@@H]1N[C@@H](CO)[C@H]1c1ccc(C2=CCCCC2)cc1,AC50,[6],> 30 µM (inactive)
COc1cc(OC)c(N(C)S(=O)(=O)c2cccc(C(=O)OCC(=O)c3c[nH]c4ccccc34)c2)cc1Cl,IC50,[7],> 69.5 µM (inactive)
same,IC50,[8],> 69.5 µM (inactive)
O=C1C=CC(=O)N1c1ccc(Br)cc1[N+](=O)[O-],IC50,NS3,22.4 µM (inactive)
Oc1ccc(/C=N/Nc2nccnc2Cl)c(O)c1,IC50,Large T antigen,16.7 µM (active)
same,EC50,[9],7.09 µM (active)
same,AC50,[10],16.5 µM (active)
same,EC50,[11],13.4 µM (active)
same,EC50,[12],1.05 µM (active)
same,EC50,BJ [13],6.12 µM (active)
same,EC50,BJ [14],10.9 µM (active)
same,EC50,[15],3.7 µM (active)
same,EC50,BJ [16],10.7 µM (active)
same,AC50,[17],3.85 µM (active)
same,IC50,Nonstructural protein 1,9.11 µM (active)
same,EC50,[18],6.33 µM (active)
same,EC50,[19],0.254 µM (active)
same,EC50,BJ [20],5.07 µM (active)
same,IC50,[21],12.7 µM (active)
CCN1CCN(C2=C(Nc3ccc(I)cc3)C(=O)c3ccccc3C2=O)CC1,AC50,[22],7.26 µM (active)
same,AC50,[23],1.48 µM (active)
same,AC50,[24],16.8 µM (active)
O=C(NCCc1ccccc1)c1cc(-c2ccco2)on1,EC50,[25],3.89 µM (active)
same,EC50,[26],0.116 µM (active)
same,EC50,cells [27],339 µM (active)
same,EC50,H4,> 120 µM (not active)
same,EC50,cells [28],11.8 µM (active)
same,AC50,[29],26 µM (active)
same,EC50,[30],> 67.5 µM (inactive)
COc1ccc(C(C(=O)NC(C)(C)C)N(Cc2ccco2)C(=O)CCC(=O)Nc2cc(C)on2)cc1 (centres undefined),AC50,[31],23.5 µM (active)
Cc1cc2oc3cc(NCCC4CCCN4C)ccc3c(=O)c2cc1C (centres undefined),AC50,[32],0.287 µM (active)
same,AC50,cells [33],35 µM (active)
same,EC50,[26],0.113 µM (active)
same,AC50,cells [34],12.4 µM (active)
same,AC50,[35],22.6 µM (active)
same,AC50,[36],13.3 µM (active)
same,EC50,H4,45.4 µM (active)
same,AC50,[37],11.2 µM (active)
same,AC50,cells [38],9.92 µM (active)
same,IC50,[39],> 20 µM (inactive)
O=C(Nc1ccccc1)C1(CCOc2ccccc2)CCN(Cc2ccc(O)c(Cl)c2)CC1,AC50,[40],15 µM (active)
[N-]=[N+]=NCCOCCNC(=O)CCCOc1ccc(-c2nnc(SCc3ccccn3)o2)cc1,IC90,[41],31 µM (active)
same,IC90,[42],31 µM (active)
